Experiments:
CpLIP2 lipase [1] = target: T1, CpLIP2 lipase (Candida parapsilosis, UniProt Q8NIN8); assay: Quenching of CpLIP2 intrinsic tryptophan fluorescence by flavonols (Stern–Volmer, Lehrer, van't Hoff analysis); format: binding; settings: for KSV (Stern–Volmer quenching constant): CpLIP2 2.5 µM, pH 7.0, flavonol 2.5–25 µM (GAL 2.5–17.5 µM); for Kq (bimolecular quenching constant): Kq = KSV/τ0, τ0 1.59 ns; for KSV (accessible), Stern–Volmer quenching constant of the exposed W residues / fa (fraction of accessible W residues to the quencher): Lehrer equation; for ΔG (free energy change): ΔG = ΔH − TΔS; for Kd: Kd (dissociation constant); for order of magnitude of Kq: all temperatures of Table 1; for ΔS (entropy changes): van't Hoff plot, 298–328 K
From the text: The fluorescence quenching spectra of CpLIP2 lipase submitted to increasing concentrations of GAL, KAE, QUE and MYR are shown in Figure 3. A remarkable quenching of the CpLIP2 fluorescence emission was observed. […] The fluorescence quenching is usually described by the linear Stern–Volmer Equations (2) and (3):(2) F0/F = 1 + Ksv [Q] = 1 + Kqτ0 [Q] (3) Kq=Ksv/τ0 where F0 and F are the intrinsic fluorescence intensities of CpLIP2 lipase (fluorophore) in absence or presence of quencher (flavonol), respectively. Kq is the bimolecular quenching constant, τ0 is the lifetime of the fluorophore in the absence of the quencher, [Q] is the concentration of the quencher, and KSV is the Stern–Volmer quenching constant.
The mechanism of quenching, occurring between CpLIP2 lipase and flavonols, was characterized by determining the values of Kq and the thermodynamic parameters by varying the temperature. […] In both cases, the bimolecular quenching constant Kq can be calculated by the ratio between KSV and τ0, itself determined at 1.59 ns for Human Pancreatic Lipase.
The inaccessible or buried residues are responsible for the remaining fluorescence, which is probably independent of the quencher concentration. […] An up-down curvature towards the x-axis has been shown for the four flavonols (Figure 4), indicating the presence of two populations of fluorophores, part of which would not be accessible. That means that some W residues are buried inside the lipase structure and that other residues are exposed to the solvent. Therefore, data were analyzed through the Lehrer equation, also known as the modified (or non-linear) Stern–Volmer Equation (4):(4) F0/ F0−F = 1/ fa Ksv 1/ [Q] +1/ fa
For static quenching, the equilibrium between free and bound CpLIP2 lipase, when the ligand molecules bind independently to equivalent sites of macromolecules, can be described by the following Equation (5):(5) log10F0−F/F=nlog10[Q]+log10Ka where Ka is the binding constant and n the number of binding sites per CpLIP2 molecule.
The results were determined for all flavonols tested at different temperatures from the plots of log10 F0 − F/F versus log10 [Q] and listed in Table 2. The plots show a linear relationship from which the slope equal to n and intercept on y-axis equal to log10 Ka. For the four flavonols, the Ka values increased when the temperatures increased. In addition, the n values were less than 1.0 in all cases and increased according to the temperature. […] Values of the dissociation constant of complexes were deduced from the Stern–Volmer Equation (6) and (7), for which Kd is expressed as the inverse of fa Ksv product. (6) F0/ F0−F= Kd 1/ [Q] +1 (7) Kd= 1/fa Ksv
Thermodynamic parameters were calculated to determine the type of binding forces that contribute in the CpLIP2 lipase–flavonol interactions. […] Both the enthalpy (ΔH) and entropy changes (ΔS) can be estimated from the following van′t Hoff Equation (8):(8) Ln Ka = − ΔH /RT + ΔS /R
The values of Gibbs binding free energy change (ΔG) are calculated from the following Equation (9):(9) ΔG= ΔH − TΔS
To fill up the volume of 300 µL by well, 190 µL of sodium phosphate buffer solution (75 mM, pH 7.0) was added to each well to obtain final concentration at 50 mM. Then, 100 µL of ethanol absolute–water ultrapure (2:8, v/v) solution was added to obtain a final amount of ethanol […] in the well of 300 µL. […] The final concentration of ethanol during the experiments never exceeded 0.07% (v/v). The last step was to add 10 µL of lipase after to have optimized the final concentration of CpLIP2 equal to 2.5 µM for all our assays, giving the optimal fluorescence intensity for all measurements. The measurement of intrinsic fluorescence started after mechanical shaking for 30 s inside the multi-plate reader. […]

CpLIP2 lipase [2] = target: T1, CpLIP2 lipase; assay: Fluorescence resonance energy transfer between CpLIP2 and flavonols (Förster theory); format: binding; settings: for E (energy transfer efficiency) / J (overlap integral) / R0 (Förster distance) / r (distance between acceptor and donor) / r/R0: 2.5 µM, 308 K, pH 7.0; on R0 (Förster distance): values in Å; on r (distance between acceptor and donor): values in Å
From the text: Fluorescence emission spectra of CpLIP2 lipase overlap the UV absorption spectrum of each flavonol studied, that may induce fluorescence resonance energy transfer (FRET) governed by the binding distance r between the protein behaving as energy donor and the flavonol energy acceptor. The binding distance r can be calculated via Förster theory with the following Equations (10) and (11):(10) E=1−F/ F0=R06/ R06+r^6 where E is the energy transfer efficiency, which is the photons fraction absorbed and transferred by the donor to the acceptor, F and F0 are the fluorescence intensities of donor (CpLIP2) in the presence or absence of acceptor (flavonol) at the same concentrations. The parameter r is the distance between acceptor and donor, and R0 is the Förster distance, which is the critical energy transfer distance when 50% of the excitation energy is transferred from the donor to the acceptor. […] The value of R0 ranges from 20–90 Å for biological macromolecules.

[3] = cited from earlier work

T1 sequence (Q8NIN8 entry or part of it): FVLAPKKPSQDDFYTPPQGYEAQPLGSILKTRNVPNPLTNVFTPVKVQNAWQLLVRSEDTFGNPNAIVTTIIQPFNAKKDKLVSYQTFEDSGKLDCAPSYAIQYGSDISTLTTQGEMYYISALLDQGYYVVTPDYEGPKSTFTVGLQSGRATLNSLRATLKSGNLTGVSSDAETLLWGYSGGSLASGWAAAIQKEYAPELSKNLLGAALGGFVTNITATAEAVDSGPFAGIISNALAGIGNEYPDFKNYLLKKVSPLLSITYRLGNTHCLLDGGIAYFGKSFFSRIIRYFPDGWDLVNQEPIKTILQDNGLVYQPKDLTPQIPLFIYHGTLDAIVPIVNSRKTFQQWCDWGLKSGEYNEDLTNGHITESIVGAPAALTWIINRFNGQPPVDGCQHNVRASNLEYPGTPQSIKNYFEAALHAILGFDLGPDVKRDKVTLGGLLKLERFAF

O=c1c(O)c(-c2ccccc2)oc2cc(O)cc(O)c12 [GAL, galangin]
Ka (association constant) (CpLIP2 lipase [1]; 298 K): 323 ± 8 L/mol | n (number of binding sites) (CpLIP2 lipase [1]; 298 K): 0.58 ± 0.18 | KSV (Stern–Volmer quenching constant) (CpLIP2 lipase [1]; 298 K): 2.9 ± 0.1 × 10^4 L·mol^−1 | Kq (bimolecular quenching constant) (CpLIP2 lipase [1]; 298 K): 1.8e+13 M⁻¹ s⁻¹ | KSV (accessible), Stern–Volmer quenching constant of the exposed W residues (CpLIP2 lipase [1]; 298 K): 360000 L/mol | fa (fraction of accessible W residues to the quencher) (CpLIP2 lipase [1]; 298 K): 0.37 | ΔG (free energy change) (CpLIP2 lipase [1]; 298 K): -20.2 kcal/mol | Ka (association constant) (CpLIP2 lipase [1]; 308 K): 502 ± 10 L/mol | n (number of binding sites) (CpLIP2 lipase [1]; 308 K): 0.63 ± 0.21 | KSV (Stern–Volmer quenching constant) (CpLIP2 lipase [1]; 308 K): 2.4 ± 0.9 × 10^4 L·mol^−1 | Kq (bimolecular quenching constant) (CpLIP2 lipase [1]; 308 K): 1.5e+13 M⁻¹ s⁻¹ | KSV (accessible), Stern–Volmer quenching constant of the exposed W residues (CpLIP2 lipase [1]; 308 K): 360000 L/mol | fa (fraction of accessible W residues to the quencher) (CpLIP2 lipase [1]; 308 K): 0.34 | ΔG (free energy change) (CpLIP2 lipase [1]; 308 K): -20.9 kcal/mol | Ka (association constant) (CpLIP2 lipase [1]; 318 K): 616 ± 10 L/mol | n (number of binding sites) (CpLIP2 lipase [1]; 318 K): 0.66 ± 0.21 | KSV (Stern–Volmer quenching constant) (CpLIP2 lipase [1]; 318 K): 2.1 ± 0.8 × 10^4 L·mol^−1 | Kq (bimolecular quenching constant) (CpLIP2 lipase [1]; 318 K): 1.3e+13 M⁻¹ s⁻¹ | KSV (accessible), Stern–Volmer quenching constant of the exposed W residues (CpLIP2 lipase [1]; 318 K): 290000 L/mol | fa (fraction of accessible W residues to the quencher) (CpLIP2 lipase [1]; 318 K): 0.33 | ΔG (free energy change) (CpLIP2 lipase [1]; 318 K): -21.6 kcal/mol | n (number of binding sites) (CpLIP2 lipase [1]; 328 K): 0.66 ± 0.04 | KSV (Stern–Volmer quenching constant) (CpLIP2 lipase [1]; 328 K): 1.5 ± 0.6 × 10^4 L·mol^−1 | Kq (bimolecular quenching constant) (CpLIP2 lipase [1]; 328 K): 1e+13 M⁻¹ s⁻¹ | KSV (accessible), Stern–Volmer quenching constant of the exposed W residues (CpLIP2 lipase [1]; 328 K): 420000 L/mol | fa (fraction of accessible W residues to the quencher) (CpLIP2 lipase [1]; 328 K): 0.25 | ΔG (free energy change) (CpLIP2 lipase [1]; 328 K): -22.3 kcal/mol | Kd (CpLIP2 lipase [1]; 298 K): 8 ± 3 µM | Kd (CpLIP2 lipase [1]; 308 K): 8 ± 4 µM | Kd (CpLIP2 lipase [1]; 318 K): 11 ± 6 µM | Kd (CpLIP2 lipase [1]; 328 K): 10 ± 6 µM | order of magnitude of Kq (CpLIP2 lipase [1]): ~10^13 L mol^−1 s^−1 | ΔS (entropy changes) (CpLIP2 lipase [1]): 0.28 kJ·mol^−1·K^−1 | percentage of transfer efficiency (CpLIP2 lipase [2]): 24% | E (energy transfer efficiency) (CpLIP2 lipase [2]): 0.24 | J (overlap integral) (CpLIP2 lipase [2]): 0.8 × 10^14 nm^4·cm^−1·M^−1 | R0 (Förster distance) (CpLIP2 lipase [2]): 23.6 Å | r (distance between acceptor and donor) (CpLIP2 lipase [2]): 28.5 Å | r/R0 (CpLIP2 lipase [2]): 1.2 | log10 P of partition between octanol and water phases [3]: 3.9 | log10D (octanol/water at pH 7.4) ([3]; pH 7.4): 0.7

O=c1c(O)c(-c2ccc(O)cc2)oc2cc(O)cc(O)c12 [KAE, kaempferol]
Ka (association constant) (CpLIP2 lipase [1]; 298 K): 458 ± 2. L·mol^−1 | n (number of binding sites) (CpLIP2 lipase [1]; 298 K): 0.63 ± 0.07 | KSV (Stern–Volmer quenching constant) (CpLIP2 lipase [1]; 298 K): 2.1 ± 0.2 × 10^4 L·mol^−1 | Kq (bimolecular quenching constant) (CpLIP2 lipase [1]; 298 K): 1.3e+13 M⁻¹ s⁻¹ | KSV (accessible), Stern–Volmer quenching constant of the exposed W residues (CpLIP2 lipase [1]; 298 K): 140000 L/mol | fa (fraction of accessible W residues to the quencher) (CpLIP2 lipase [1]; 298 K): 0.45 | ΔG (free energy change) (CpLIP2 lipase [1]; 298 K): -9.39 kcal/mol | Ka (association constant) (CpLIP2 lipase [1]; 308 K): 476 ± 4 L/mol | n (number of binding sites) (CpLIP2 lipase [1]; 308 K): 0.63 ± 0.07 | KSV (Stern–Volmer quenching constant) (CpLIP2 lipase [1]; 308 K): 1.9 ± 0.7 × 10^4 L·mol^−1 | Kq (bimolecular quenching constant) (CpLIP2 lipase [1]; 308 K): 1.2e+13 M⁻¹ s⁻¹ | KSV (accessible), Stern–Volmer quenching constant of the exposed W residues (CpLIP2 lipase [1]; 308 K): 170000 L/mol | fa (fraction of accessible W residues to the quencher) (CpLIP2 lipase [1]; 308 K): 0.43 | ΔG (free energy change) (CpLIP2 lipase [1]; 308 K): -9.7 kcal/mol | Ka (association constant) (CpLIP2 lipase [1]; 318 K): 862 ± 3 L/mol | n (number of binding sites) (CpLIP2 lipase [1]; 318 K): 0.69 ± 0.09 | KSV (Stern–Volmer quenching constant) (CpLIP2 lipase [1]; 318 K): 1.8 ± 0.7 × 10^4 L·mol^−1 | Kq (bimolecular quenching constant) (CpLIP2 lipase [1]; 318 K): 1.1e+13 M⁻¹ s⁻¹ | KSV (accessible), Stern–Volmer quenching constant of the exposed W residues (CpLIP2 lipase [1]; 318 K): 150000 L/mol | fa (fraction of accessible W residues to the quencher) (CpLIP2 lipase [1]; 318 K): 0.42 | ΔG (free energy change) (CpLIP2 lipase [1]; 318 K): -10 kcal/mol | Ka (association constant) (CpLIP2 lipase [1]; 328 K): 1290 ± 2 L/mol | n (number of binding sites) (CpLIP2 lipase [1]; 328 K): 0.75 ± 0.07 | KSV (Stern–Volmer quenching constant) (CpLIP2 lipase [1]; 328 K): 1.6 ± 0.6 × 10^4 L·mol^−1 | Kq (bimolecular quenching constant) (CpLIP2 lipase [1]; 328 K): 1e+13 M⁻¹ s⁻¹ | KSV (accessible), Stern–Volmer quenching constant of the exposed W residues (CpLIP2 lipase [1]; 328 K): 150000 L/mol | fa (fraction of accessible W residues to the quencher) (CpLIP2 lipase [1]; 328 K): 0.34 | ΔG (free energy change) (CpLIP2 lipase [1]; 328 K): -10.3 kcal/mol | Kd (CpLIP2 lipase [1]; 298 K): 16 ± 3 µM | Kd (CpLIP2 lipase [1]; 308 K): 14 ± 5 µM | Kd (CpLIP2 lipase [1]; 318 K): 16 ± 7 µM | Kd (CpLIP2 lipase [1]; 328 K): 19 ± 9 µM | order of magnitude of Kq (CpLIP2 lipase [1]): ~10^13 L mol^−1 s^−1 | ΔS (entropy changes) (CpLIP2 lipase [1]): 0.13 kJ·mol^−1·K^−1 | percentage of transfer efficiency (CpLIP2 lipase [2]): 12% | E (energy transfer efficiency) (CpLIP2 lipase [2]): 0.12 | J (overlap integral) (CpLIP2 lipase [2]): 10 × 10^14 nm^4·cm^−1·M^−1 | R0 (Förster distance) (CpLIP2 lipase [2]): 36.0 Å | r (distance between acceptor and donor) (CpLIP2 lipase [2]): 50.1 Å | r/R0 (CpLIP2 lipase [2]): 1.4 | log10 P of partition between octanol and water phases [3]: 3.5

Source: paper PMC6719172, “Inhibition of CpLIP2 Lipase Hydrolytic Activity by Four Flavonols (Galangin, Kaempferol, Quercetin, Myricetin) Compared to Orlistat and Their Binding Mechanisms Studied by Quenching of Fluorescence” (Molecules, 2019)
